Like-named read-outs stand apart in the source and are kept apart here. Marks after values point to notes of the source that are not given here.
Key:
[1] = Metabolism and clearance in normal mice (plasma and urine, LC MS/MS); type: in vivo; conditions: for dose excreted: iv, 117 mg/kg
Protocol: The metabolism and clearance of Suc-Ile-Ala-Leu-Dox was studied in normal mice. The mice were administered Suc-Ile-Ala-Leu-Dox at a single intravenous bolus dose of 117 mg/kg. Plasma samples were obtained at 1 and 4 hours. Plasma samples of 100 μl were transferred to microcentrifuge tubes (1.5 mL) and an internal standard of daunorubicin (20 μL at 0.5 mg/ml) was added together with acetonitrile (400 μl). The tubes were capped and briefly vortexed followed by centrifugation at 14,000 rpm. 420 μl from each tube was removed and dried in vacuo. Each sample was reconstituted in 65 μl 20 mM aqueous ammonium formate pH 4.5 buffer (AF) containing acetonitrile (20%) prior to analysis by reverse phase liquid chromatography in combination with tandem mass spectrometry (LC MS/MS).
Urine was collected at 2 and 24 hours post administration from pairs of mice in metabolic cages. Urine samples were diluted with AF containing acetonitrile (20%) to give a target analyte concentration within the practical range of the LC MS/MS assay. 30 μl of each diluted sample was placed in an Eppendorf tube (1.5 ml) and an internal standard of daunorubicin (20 μL at 0.5 mg/ml) was added together with 50 μl of AF containing acetonitrile (20%). Each sample was then analyzed by LC MS/MS.
An Agilent HP1100 HPLC with DAD detector and Chemstation software was coupled to a PE Sciex API 365 mass spectrometer with an electrospray ion source. HPLC was performed on a TSK-Gel Super ODS, […], 4.6×50 mm (TosoHaas) reversed phase column equipped with a […] C18 guard disc (Higgins Analytical) and stainless steel frit (Upchurch Scientific). Chromatography was performed at room temperature. The flow rate was 0.5 ml/min. Injection volume was 50 μL. Gradient elution was performed using a mobile phase of 20 mM aqueous AF pH 4.5 buffer with increasing amounts of acetonitrile. The API 365 was operated at 365° C. in a multiple reaction monitoring mode, set to monitor specific analyte parent-daughter ion pairs. Integration of chromatograms was performed by MacQuant software (PE Sciex) and quantitation of each analyte obtained by comparison to previously obtained calibration curves. Daunorubicin was used as an internal standard in all cases.
For the calculation of percent of administered dose, plasma volume was estimated to be 40% of blood volume, which was calculated as 7% of animal's body weight. At 2 and 24 hours the parent compound was detected in urine at 3.9% and 15.0% of the administered dose, showing that the kidney is a major organ of excretion for the prodrug (FIG. 17).
Plasma samples were obtained at 1 and 4 hours from separate mice. Urine was collected at 2 and 24 hours post administration from pairs of mice in metabolic cages. The plasma and urine samples were prepared and analyzed as described in Example 17.

[2] = test system: LNCaP prostate carcinoma xenograft; assay: LNCaP prostate carcinoma xenograft in nude mice, Q7D × 3 (Examples 30, 31); conditions: for Toxic Endpoint: >20% body weight loss; for Cancer Endpoint: tumors reaching 1000 mg
Protocol: In this model, 7.5 million LNCaP cells resuspended in 0.1 ml of phosphate buffered saline and 0.1 ml of Matrigel (Becton Dickinson) were injected into the side of male nude mice fed on high fat diet.

[3] = test system: normal ICR mice; assay: Second single dose Maximum Tolerated Dose (SD-MTD) study, 49 days; conditions: for SD-MTD Molar Ratio (Dox=): relative to doxorubicin on a molar basis
Protocol: In a second single dose Maximum Tolerated Dose (SD-MTD) study, groups of five normal ICR mice were administered intravenous bolus doses of Suc-βAla-Leu-Ala-Leu-Dox. The mice were observed daily for 49 days and body weights measured twice weekly.
In a second single dose Maximum Tolerated Dose (SD-MTD) study, groups of five normal ICR mice were administered intravenous bolus doses of Suc-Leu-Ala-Leu-Dox. The mice were observed daily for 49 days and body weights measured twice weekly.
In a second single dose Maximum Tolerated Dose (SD-MTD) study, groups of five normal ICR mice were administered intravenously bolus doses of Suc-Ile-Ala-Leu-Dox. The mice were observed daily for 49 days and body weights measured twice weekly.
In a second single dose Maximum Tolerated Dose (SD-MTD) study, groups of five normal ICR mice were administered intravenous bolus doses of Suc-βAla-Ile-Ala-Leu-Dox. The mice were observed daily for 49 days and body weights measured twice weekly.

[4] = test system: Porcine Kidney CD10; assay: Hydrolysis by purified CD10; type: biochemical; conditions: for % hydrolysis/10 hr: 12.5 μg/mL, 37° C., pH 7.4, product Leu-doxorubicin; for Fraction hydrolyzed relative to standard: standard Suc-βAla-Leu-Ala-Leu-Dox
Protocol: Reaction products were analyzed by HPLC with fluorescence detection. Rates were essentially linear over the incubation period. The observed product was Leu-doxorubicin.

[5] = Pharmacokinetic/metabolism study, single IV bolus; conditions: for Major Plasma Metabolite: mice; for Plasma AUC0-6 hr of AL-Dox or AG-Dox* / Plasma AUC0-6 hr of L-Dox or G-Dox*: single IV bolus approximately 100 μmol/Kg; for Plasma AUC0-6 hr of Dox: single IV bolus approximately 100 μmol/Kg of prodrug
Protocol: Plasma was obtained from three individual animals in each group at 5 minutes, 1, 2, 4, or 6 hr.

COc1cccc2c1C(=O)c1c(O)c3c(c(O)c1C2=O)C[C@@](O)(C(=O)CO)C[C@@H]3O[C@H]1C[C@H](N)[C@H](O)[C@H](C)O1 [Doxorubicin, reference compound]
Urine (% adm. dose) 2 hr ([1]; after Suc-Ile-Ala-Leu-Dox 117 mg/kg, collected 0-2 hours): 0.06 % adm. dose | Urine (% adm. dose) 24 hr ([1]; after Suc-Ile-Ala-Leu-Dox 117 mg/kg, collected 2-24 hours): 0.36 % adm. dose | Plasma (% adm. dose) 4 hr ([1]; mouse, in vivo, 4 h): 0.00 % adm. dose | TGI D22 ([2]; 4 mg/kg Q7D × 3): 52.2 ± 28.8% | Tumor Weight (mg) D22 ([2]; 4 mg/kg Q7D × 3): 323.8 ± 60.8 mg | loss of group mean adjusted body weight ([2]; 4 mg/kg Q7D × 3, Day 22): about 7% | Survivor D36 ([2]; 4 mg/kg Q7D × 3, N 8): D36: 3 | Toxic Endpoint ([2]; 4 mg/kg Q7D × 3): 1 | Cancer Endpoint ([2]; 4 mg/kg Q7D × 3): 4

CC[C@H](C)[C@H](NC(=O)CCNC(=O)CCC(=O)O)C(=O)N[C@@H](C)C(=O)N[C@@H](CC(C)C)C(=O)N[C@H]1C[C@H](O[C@H]2C[C@](O)(C(=O)CO)Cc3c(O)c4c(c(O)c32)C(=O)c2c(OC)cccc2C4=O)O[C@@H](C)[C@H]1O [Suc-βAla-Ile-Ala-Leu-Dox]
animals euthanized due to weight loss or paralysis ([3]; 100 mg/kg, by Day 21, groups of five): three | SD-MTD Molar Ratio (Dox=) [3]: 2.6 | % hydrolysis/10 hr [4]: 22.1 % hydrolysis/10 hr | Fraction hydrolyzed relative to standard [4]: 2.0 | Major Plasma Metabolite [5]: Leu-Dox | Plasma AUC0-6 hr of AL-Dox or AG-Dox* [5]: 0.5 µM·h | Plasma AUC0-6 hr of L-Dox or G-Dox* [5]: 8.5 µM·h | Plasma AUC0-6 hr of Dox [5]: 1.5 µM·h | dose excreted ([1]; mouse, in vivo, Urine (% adm. dose) 2 hr): 12.7% | dose excreted ([1]; mouse, in vivo, Urine (% adm. dose) 24 hr): 4.81% | Tumor Weight (mg) D22 ([2]; 40 mg/kg (22 Dox equi) Q7D × 3): D22: 152.1 ± 19.3 mg | TGI D22 ([2]; 40 mg/kg (22 Dox equi) Q7D × 3, listed as Suc-bAla-Ile-Ala-Leu-Dox): 77.5 ± 27.5% | Survivor D36 ([2]; 40 mg/kg Q7D × 3, N 8): D36: 8** | Toxic Endpoint ([2]; 40 mg/kg Q7D × 3): 0 | Cancer Endpoint ([2]; 40 mg/kg Q7D × 3): 0

COc1cccc2c1C(=O)c1c(O)c3c(c(O)c1C2=O)C[C@@](O)(C(=O)CO)C[C@@H]3O[C@H]1C[C@H](NC(=O)[C@H](CC(C)C)NC(=O)[C@H](C)NC(=O)[C@H](CC(C)C)NC(=O)CCNC(=O)CCC(=O)O)[C@H](O)[C@H](C)O1 [Suc-βAla-Leu-Ala-Leu-Dox]
mortality ([3]; 75 mg/kg dose group, by Day 35): 40% | % hydrolysis/10 hr [4]: 10.9 % hydrolysis/10 hr | Fraction hydrolyzed relative to standard [4]: 1.0 | Major Plasma Metabolite [5]: Ala-Leu-Dox | TGI D22 ([2]; 32 mg/kg (18 Dox equi) Q7D × 3): 82.8 ± 27.7% | Tumor Weight (mg) D22 ([2]; 32 mg/kg (18 Dox equi) Q7D × 3): 116.3 ± 30.2 mg | Survivor D36 ([2]; 32 mg/kg Q7D × 3, N 8): 8** | Toxic Endpoint ([2]; 32 mg/kg Q7D × 3): 0 | Cancer Endpoint ([2]; 32 mg/kg Q7D × 3): 0 | Toxic Endpoint ([2]; 40 mg/kg Q7D × 3): 0 | Cancer Endpoint ([2]; 40 mg/kg Q7D × 3): 0 | TGI D22 ([2]; 50 mg/kg (28 Dox equi) Q7D × 3): 78.8 ± 27.5% | Tumor Weight (mg) D22 ([2]; 50 mg/kg (28 Dox equi) Q7D × 3): 143.4 ± 19.0 mg | Survivor D36 ([2]; 50 mg/kg Q7D × 3, N 8): 8** | Toxic Endpoint ([2]; 50 mg/kg Q7D × 3): 0 | Cancer Endpoint ([2]; 50 mg/kg Q7D × 3): 0 | maximal loss of group mean adjusted body weight ([2]; all three doses (32, 40, 50 mg/kg) Q7D × 3, to Day 36): ≤ 3%

CC[C@H](C)[C@H](NC(=O)CCC(=O)O)C(=O)N[C@@H](C)C(=O)N[C@@H](CC(C)C)C(=O)N[C@H]1C[C@H](O[C@H]2C[C@](O)(C(=O)CO)Cc3c(O)c4c(c(O)c32)C(=O)c2c(OC)cccc2C4=O)O[C@@H](C)[C@H]1O [Suc-Ile-Ala-Leu-Dox]
SD-MTD ([3]; intravenous bolus, Day 49): 94 mg/kg | SD-MTD Molar Ratio (Dox=) [3]: 3.5 | % hydrolysis/10 hr [4]: 12.5 % hydrolysis/10 hr | Fraction hydrolyzed relative to standard [4]: 1.1 | Major Plasma Metabolite [5]: Leu-Dox | Plasma AUC0-6 hr of AL-Dox or AG-Dox* [5]: 1.0 µM·h | Plasma AUC0-6 hr of L-Dox or G-Dox* [5]: 6.2 µM·h | Plasma AUC0-6 hr of Dox [5]: 0.9 µM·h | dose excreted ([1]; mouse, in vivo, after Suc-Ile-Ala-Leu-Dox 117 mg/kg, collected 0-2 hours, read-out: Urine (% adm. dose) 2 hr): 3.9% | dose excreted ([1]; mouse, in vivo, after Suc-Ile-Ala-Leu-Dox 117 mg/kg, collected 2-24 hours, read-out: Urine (% adm. dose) 24 hr): 15%
